From US10342853B2, “Leptin active peptide having D helix region mutations, coding gene thereof, and application thereof” (SHANGHAI YUANXIN BIOCHEMICAL SCIENCE AND TECHNOLOGY CO. LTD., priority 2015, dated 2019)

Test system: 3T3-L1 preadipocyte line
Test: In-vitro lipid-lowering (adipocyte-degrading) activity analysis, MTT detection
Type: cell-based
Procedure: Lipid degradation activity of the synthesized leptin active peptide having helix D region mutation is analyzed on a cellular level by taking a 3T3-L1 preadipocyte line as a model. Specific operations are as follows:
b: an early differentiation stage D0-D2 (0-2nd day of induced differentiation); and
c: a mature adipocyte stage D9 (the 9th day of induced differentiation);
a. leptin active peptide having helix D region mutation (PEP-D): diluted to 10^−3M with purified water and preserved at −20 degree C. for later use. After an experiment is started, working concentrations have 3 concentration gradients, that is, 10^−6M, 10^−9M and 10^−11M;
b. positive control. I: H-LEP, recombinant human-derived leptin protein (10221-HNAE, Beijing Sino Biological Inc.), diluted to 10^−6M with purified water and preserved at −20 degree C. for later use. After an experiment is started, the working concentration is 10^−9M;
c. positive control 2: Ros (Rosiglitazone, 82408, Sigma), diluted to a stock solution with a concentration of 2518 μM with DMSO and preserved at −20 degree C. for later use. After an experiment is started, the stock solution is diluted to a working solution of 0.5 μM with cell culture fluid;
d. negative control (Control): equivalent quantity of PBS
(1) Inoculating 3T3-L1 preadipocytes in corning cell bind 96-well plates (totally inoculated with 3 plates, respectively plate a, plate b and plate c), wherein the inoculation density is 4500 cells/well; and marking, and standing and culturing at 37 degree C. in a 5% CO2 incubator. Each sample of each plate is operated repeatedly for 3 times, and the whole experiment is repeated for 3 times;
(2) Continuously culturing for 48 hours after the cells are merged to 100% (enabling the cells to exit from a growth cycle, and starting induced differentiation); and
i, taking out the plate a; respectively adding different amounts of leptin active peptide having helix D region mutation (PEP-D) to enable the working concentrations to be respectively 3 concentration gradients, that is, 10^−6M, 10^−9M and 10^−11M; setting 2 positive controls, a negative control (PBS) and a blank control (3 repeated holes are set for each sample), and continuously standing and culturing at 37 degree C. in the 5% CO2 incubator.
ii, when culturing to 45 hours (that is, 3 hours before the end of drug treatment), taking out the plate a, and measuring MTT (preadipocytes). Specific operations: adding 20 μL of 5 mg/mL of MTT solution into each well, continuously standing and culturing at 37 degree C. in the 5% CO2 incubator for 3 hours, sucking and discarding the culture solution in the wells, adding 150 μL of DMSO into each well, horizontally shaking for 10 min, detecting a light absorption value at 492 nm by a microplate reader, and drawing a growth curve;
i, taking out the plate b; adding the differentiation induced liquid I (D0); respectively adding the leptin active peptide having helix D region mutation (PEP-D); setting 2 positive controls, a negative control (PBS) and a blank control (3 repeated holes are set for each sample), and continuously standing and culturing at 37 degree C. in the 5% CO2 incubator.
ii, when culturing to 45 hours (that is, 3 hours before the end of drug treatment), taking out the plate b, and measuring MTT (at the early differentiation stage, D0-D2). Specific operations: adding 20 μL, of 5 mg/mL of MTT solution into each well; continuously standing and culturing at 37 degree C. in the 5% CO2 incubator for 3 hours; sucking and discarding the culture solution in the wells; adding 150 μL of DMSO into each well; horizontally shaking for 10 min; detecting a light absorption value at 492 nm by the microplate reader; and drawing a growth curve;
i, taking out the plate c; adding the differentiation induced liquid I (D0) into each well; and continuously standing and culturing at 37 degree C. in the 5% CO2 incubator for 48 hours; […]

Substance	adipocyte lysis activity vs. negative control (Control, PBS) (MTT, FIG. 2 mark a, P<0.05, H-LEP 10^−9M, Ros 0.5 μM)	adipocyte lysis activity vs. H-LEP (MTT, FIG. 2 mark b, P<0.05)	adipocyte lysis activity vs. Ros (MTT, FIG. 2 mark c, P<0.05)	concentration dependence of lipid-lowering activity (MTT, PEP-D at 10^−6M, 10^−9M and 10^−11M)	concentration with optimal lipid-lowering effect (MTT, of 10^−6M, 10^−9M and 10^−11M tested, on a whole)	dependence of lipid-lowering activity on cell differentiation period (MTT, preadipocytes, D0-D2, D9)	adipocyte-degrading activity compared with positive controls H-LEP and Ros (MTT, three cell differentiation stages (preadipocytes, early differentiation D0-D2, mature adipocyte D9), H-LEP 10^−9M, Ros 0.5 μM)	cell lysis effects at three stages (preadipocytes stage, differentiation stage (D0-D2), mature adipocyte stage (D9))
H-LEP: recombinant human-derived leptin protein (10221-HNAE, Beijing Sino Biological Inc.), positive control	obviously better than that of the negative control	–	–	–	–	–	–	–
STEVVALDGLQGSLQTMLLQLEYS (An amino acid sequence of the leptin active peptide having helix D region mutation) [PEP-D]	–	obviously better than that of the H-LEP	obviously better than that of the Ros	obvious concentration dependence	10^−9 M	dependence in a cell differentiation period	obviously better than that of positive control-human-derived leptin protein (H-LEP) and a commercially available drug rosiglitazone (Ros)	obvious cell lysis effects
